Experimental data: patent publication US9050341B2, “Methods of treating drug resistant and other tumors by administering 6,7-dialkoxy quinazoline derivatives” (NATCO PHARMA LIMITED, priority 2009, dated 2015)

What was measured:
Test in all cases: KinomeScan kinase profiling
Assay type in all cases: binding
[1] = target: T1, KIT (Homo sapiens, UniProt P10721)
T1 construct: host or cells: T7 phage in E. coli host derived from BL21
Description: (§1) The kinases were ABL1(F317L), ABL1(H396P), ABL1(Q252H), ABL1(Y253F), ADCK3, ADCK4, ALK, ARK5, AXL, BLK, BRSK2, CDK7, CIT, CLK4, CSNK1D, CSNK1E, DAPK1, DAPK3, DCAMKL3, DMPK, EGFR, EGFR(E746-A750DEL), EGFR(G719C), EGFR(G719S), EGFR(L747-E749DEL, A750P), EGFR(L747-S752 DEL, P753S), EGFR(L747-T751DEL, Sin), EGFR(L858R), EGFR(L861Q), EGFR(S752-I759DEL), EPHA5, EPHA6, ERBB2, ERBB4, ERK3, ERK4, FGR, FLT3(D835H), FLT3(D835Y), FLT3(ITD), FLT3(N841 I), FRK, GAK, GCN2(KIN.DOM.2, S808G), HCK, IRAK3, JAK1(KIN.DOM.1), KIT, KIT(D816V), KIT(V559D), KIT(V559D,T670I), LCK, LOK, LTK, LYN, MAP3K3, MAP4K4, MAP4K5, MET, MINK, MKNK1, MKNK2, MST4, MYLK2, PDGFRB, PIM3, PKN2, PRKD1, PRKD2, PRKD3, PRKG1, RIPK2, RPS6KA4(KIN.DOM.2), SIK2, SLK, SNARK, SRC, STK36, TNIK, TNNI3K, TYK2(KIN.DOM.2).
(§2) Kinase assays: Assays were performed as described in Fabian et al. (2005) Nature Biotechnology, vol. 23, p. 329. Kinase-tagged T7 phage strains were grown in parallel in 24 or 96-well blocks in an E. coli host derived from the BL21 strain. E. coli were grown to log-phase and infected with T7 phage from a frozen stock (multiplicity of infection ˜0.1) and incubated with shaking at 32° C. until lysis (˜90 minutes). The lysates were centrifuged and filtered to remove cell debris. […] The liganded beads were blocked with excess biotin and washed with blocking buffer (SeaBlock (Pierce), 1% BSA, 0.05% Tween 20, 1 mM DTT) to remove unbound ligand and to reduce non-specific phage binding.
(§3) Test compounds were prepared as 40× stocks in DMSO and diluted into the aqueous environment. 2.5% DMSO was added to control assays lacking a test compound. All reactions were performed in polystyrene 96-well plates that had been pretreated with blocking buffer in a final volume of 0.04 ml. […] The phage titer in the eluates was measured by quantitative PCR.

[2] = target: T2, DRAK1 (Homo sapiens, UniProt Q9UEE5)
T2 construct: purchased Ambit Biosciences Corp (KinomeScan); host or cells: T7 phage in E. coli host derived from BL21
T2 sequence (Q9UEE5 whole entry): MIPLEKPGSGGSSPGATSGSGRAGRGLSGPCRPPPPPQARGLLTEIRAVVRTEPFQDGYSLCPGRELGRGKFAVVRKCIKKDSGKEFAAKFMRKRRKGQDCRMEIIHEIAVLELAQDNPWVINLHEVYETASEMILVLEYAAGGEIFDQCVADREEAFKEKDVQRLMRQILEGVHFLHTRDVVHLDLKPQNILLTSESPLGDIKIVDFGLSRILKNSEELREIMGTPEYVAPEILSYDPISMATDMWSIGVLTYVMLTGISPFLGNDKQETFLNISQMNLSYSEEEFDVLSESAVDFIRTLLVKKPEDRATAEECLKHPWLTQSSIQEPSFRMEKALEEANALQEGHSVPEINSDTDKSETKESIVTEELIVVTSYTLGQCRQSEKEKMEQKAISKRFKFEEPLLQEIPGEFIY
Description: as §1, §2, §3

[3] = target: T3, PIM2 (Homo sapiens, UniProt Q9P1W9)
T3 construct: purchased Ambit Biosciences Corp (KinomeScan); host or cells: E. coli host derived from BL21, infected with T7 phage
T3 sequence (Q9P1W9 whole entry): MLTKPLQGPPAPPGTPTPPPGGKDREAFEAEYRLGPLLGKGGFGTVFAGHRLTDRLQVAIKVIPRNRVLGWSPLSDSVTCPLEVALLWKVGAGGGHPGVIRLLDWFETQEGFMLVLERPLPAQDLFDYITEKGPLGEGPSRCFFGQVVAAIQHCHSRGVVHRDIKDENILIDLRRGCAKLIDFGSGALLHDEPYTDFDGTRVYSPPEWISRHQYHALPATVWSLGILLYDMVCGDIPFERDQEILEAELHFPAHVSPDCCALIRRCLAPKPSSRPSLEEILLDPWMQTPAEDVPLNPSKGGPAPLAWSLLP
Description: as §1, §2, §3

[4] = target: T4, RPS6KA1 (Kin.Dom.-1-N-terminal) (Homo sapiens, UniProt Q15418)
T4 construct: RPS6KA1 (Kin.Dom.-1-N-terminal); host or cells: E. coli host derived from BL21, T7 phage lysate
Description: as §1, §2, §3

[5] = target: T5, EGFR (S752-1759del) (Homo sapiens, UniProt P00533, DEL752-759)
T5 construct: host or cells: E. coli host derived from BL21, T7 phage lysate
Description: as §1, §2, §3

[6] = target: T6, BLK (Homo sapiens, UniProt P51451)
T6 construct: purchased Ambit Biosciences Corp (KinomeScan); host or cells: E. coli host derived from the BL21 strain, T7 phage
T6 sequence (P51451 whole entry): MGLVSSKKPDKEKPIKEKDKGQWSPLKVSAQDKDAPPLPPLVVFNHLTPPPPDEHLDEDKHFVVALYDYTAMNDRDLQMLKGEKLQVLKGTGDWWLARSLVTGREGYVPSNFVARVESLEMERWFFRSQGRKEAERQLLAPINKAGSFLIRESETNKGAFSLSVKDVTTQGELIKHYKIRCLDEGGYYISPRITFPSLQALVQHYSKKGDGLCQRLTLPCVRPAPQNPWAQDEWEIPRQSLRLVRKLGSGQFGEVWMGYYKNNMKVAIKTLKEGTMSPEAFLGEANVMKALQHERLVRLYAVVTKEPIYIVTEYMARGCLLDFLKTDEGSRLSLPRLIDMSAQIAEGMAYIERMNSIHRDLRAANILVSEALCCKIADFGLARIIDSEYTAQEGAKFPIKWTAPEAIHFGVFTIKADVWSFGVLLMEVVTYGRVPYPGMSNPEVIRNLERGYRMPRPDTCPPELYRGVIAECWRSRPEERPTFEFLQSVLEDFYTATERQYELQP
Description: as §1, §2, §3

[7] = target: T7, MYLK2 (Homo sapiens, UniProt Q9H1R3)
T7 construct: host or cells: T7 phage in E. coli host derived from BL21
Description: as §1, §2, §3

[8] = target: T8, MAP4K5 (Homo sapiens, UniProt Q9Y4K4)
T8 construct: host or cells: E. coli derived from BL21, infected with T7 phage
Description: as §1, §2, §3

[9] = target: T9, MST1R (Homo sapiens, UniProt Q04912)
T9 construct: host or cells: T7 phage in E. coli host derived from BL21
T9 sequence (Q04912 25-1400): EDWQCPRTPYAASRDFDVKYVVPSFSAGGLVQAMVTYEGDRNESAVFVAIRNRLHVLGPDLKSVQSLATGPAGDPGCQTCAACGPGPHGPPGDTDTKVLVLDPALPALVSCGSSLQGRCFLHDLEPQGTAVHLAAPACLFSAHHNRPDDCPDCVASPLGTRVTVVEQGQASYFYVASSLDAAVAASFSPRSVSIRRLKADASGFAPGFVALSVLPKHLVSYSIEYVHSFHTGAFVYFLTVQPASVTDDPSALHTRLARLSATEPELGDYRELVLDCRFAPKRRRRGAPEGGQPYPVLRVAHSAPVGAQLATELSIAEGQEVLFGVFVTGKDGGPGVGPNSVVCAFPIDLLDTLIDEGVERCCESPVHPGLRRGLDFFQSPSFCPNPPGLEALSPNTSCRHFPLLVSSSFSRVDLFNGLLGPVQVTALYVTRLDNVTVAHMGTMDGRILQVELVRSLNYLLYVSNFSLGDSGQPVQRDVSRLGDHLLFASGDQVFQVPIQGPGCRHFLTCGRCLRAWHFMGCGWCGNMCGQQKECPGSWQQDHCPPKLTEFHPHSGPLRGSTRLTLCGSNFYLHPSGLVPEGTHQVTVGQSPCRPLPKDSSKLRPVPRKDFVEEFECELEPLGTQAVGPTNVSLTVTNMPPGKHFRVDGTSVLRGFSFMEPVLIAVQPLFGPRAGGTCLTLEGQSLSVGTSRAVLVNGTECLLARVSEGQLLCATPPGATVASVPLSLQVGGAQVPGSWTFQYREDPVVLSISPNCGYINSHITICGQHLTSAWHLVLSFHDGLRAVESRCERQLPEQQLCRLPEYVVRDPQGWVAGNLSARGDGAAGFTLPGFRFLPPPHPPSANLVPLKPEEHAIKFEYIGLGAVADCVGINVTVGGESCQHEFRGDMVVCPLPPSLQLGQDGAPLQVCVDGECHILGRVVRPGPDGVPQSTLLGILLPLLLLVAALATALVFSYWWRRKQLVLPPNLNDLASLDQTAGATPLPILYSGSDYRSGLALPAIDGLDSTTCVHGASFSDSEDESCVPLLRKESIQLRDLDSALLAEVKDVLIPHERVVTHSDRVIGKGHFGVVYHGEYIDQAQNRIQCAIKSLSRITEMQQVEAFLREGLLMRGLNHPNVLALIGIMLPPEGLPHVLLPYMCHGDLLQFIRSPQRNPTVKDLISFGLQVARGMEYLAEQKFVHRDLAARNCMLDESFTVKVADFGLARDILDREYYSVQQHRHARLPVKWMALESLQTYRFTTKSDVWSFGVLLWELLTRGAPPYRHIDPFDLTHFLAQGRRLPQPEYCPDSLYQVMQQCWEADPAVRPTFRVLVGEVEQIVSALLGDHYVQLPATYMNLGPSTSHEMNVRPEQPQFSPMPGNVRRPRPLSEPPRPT
Description: as §1, §2, §3

[10] = target: T10, PIK3C2B (Homo sapiens, UniProt O00750)
T10 construct: host or cells: E. coli host derived from the BL21 strain, infected with T7 phage
Description: as §1, §2, §3

[11] = target: T11, JAK2 (JH1domain-catalytic) (Homo sapiens, UniProt O60674)
T11 construct: JAK2 (JH1domain-catalytic); host or cells: T7 phage in E. coli host derived from BL21
Description: as §1, §2, §3

[12] = target: T12, ABL1 (M351T) (Homo sapiens, UniProt P00519, M351T)
T12 construct: host or cells: E. coli host derived from BL21 (T7 phage lysate)
Description: as §1, §2, §3

[13] = target: T13, PIK3CD (Homo sapiens, UniProt O00329)
T13 construct: purchased Ambit Biosciences Corp (KinomeScan); host or cells: E. coli host derived from BL21, infected with T7 phage
Description: as §1, §2, §3

[14] = target: T14, ACVR2B (Homo sapiens, UniProt Q13705)
T14 construct: host or cells: E. coli host derived from BL21 (T7 phage lysate)
T14 sequence (Q13705 19-512): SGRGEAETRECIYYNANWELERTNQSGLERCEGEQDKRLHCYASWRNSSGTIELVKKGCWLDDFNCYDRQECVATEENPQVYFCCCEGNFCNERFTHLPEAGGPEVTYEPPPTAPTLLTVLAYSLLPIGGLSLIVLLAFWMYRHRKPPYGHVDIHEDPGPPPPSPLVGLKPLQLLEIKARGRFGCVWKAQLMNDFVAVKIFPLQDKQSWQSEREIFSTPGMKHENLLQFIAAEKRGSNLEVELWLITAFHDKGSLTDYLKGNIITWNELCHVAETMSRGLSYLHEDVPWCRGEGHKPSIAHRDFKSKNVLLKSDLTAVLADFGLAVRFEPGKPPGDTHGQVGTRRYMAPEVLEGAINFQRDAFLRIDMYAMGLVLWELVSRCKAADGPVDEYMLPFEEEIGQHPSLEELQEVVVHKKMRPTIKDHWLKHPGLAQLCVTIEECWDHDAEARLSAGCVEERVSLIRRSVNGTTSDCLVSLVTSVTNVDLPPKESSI
Description: as §1, §2, §3

[15] = target: T15, RPS6KA2 (Kin.Dom.-2-C-terminal) (Homo sapiens, UniProt Q15349)
T15 construct: RPS6KA2 (Kin.Dom.-2-C-terminal); host or cells: E. coli host derived from BL21, T7 phage lysate
Description: as §1, §2, §3

[16] = target: T16, MST3 (Homo sapiens, UniProt Q9Y6E0)
T16 construct: host or cells: T7 phage in E. coli host derived from BL21
Description: as §1, §2, §3

[17] = target: T17, CLK4 (Homo sapiens, UniProt Q9HAZ1)
T17 construct: host or cells: T7 phage in E. coli (BL21-derived)
T17 sequence (Q9HAZ1 whole entry): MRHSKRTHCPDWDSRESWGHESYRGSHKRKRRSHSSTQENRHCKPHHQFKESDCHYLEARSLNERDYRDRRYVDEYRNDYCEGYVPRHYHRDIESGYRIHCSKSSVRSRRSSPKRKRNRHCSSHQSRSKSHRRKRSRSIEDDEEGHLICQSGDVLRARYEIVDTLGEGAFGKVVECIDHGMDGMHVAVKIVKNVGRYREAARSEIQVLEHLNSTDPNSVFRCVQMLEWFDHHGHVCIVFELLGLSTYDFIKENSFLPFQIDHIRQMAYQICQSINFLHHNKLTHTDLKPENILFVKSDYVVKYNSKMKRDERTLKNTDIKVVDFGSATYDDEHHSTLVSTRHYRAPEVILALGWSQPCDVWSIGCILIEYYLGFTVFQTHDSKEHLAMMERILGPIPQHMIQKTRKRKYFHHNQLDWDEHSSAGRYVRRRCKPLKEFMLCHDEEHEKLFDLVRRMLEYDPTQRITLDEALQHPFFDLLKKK
Description: as §1, §2, §3

[18] = target: T18, PHKG1 (Homo sapiens, UniProt Q16816)
T18 construct: host or cells: E. coli host derived from the BL21 strain, infected with T7 phage
T18 sequence (Q16816 whole entry): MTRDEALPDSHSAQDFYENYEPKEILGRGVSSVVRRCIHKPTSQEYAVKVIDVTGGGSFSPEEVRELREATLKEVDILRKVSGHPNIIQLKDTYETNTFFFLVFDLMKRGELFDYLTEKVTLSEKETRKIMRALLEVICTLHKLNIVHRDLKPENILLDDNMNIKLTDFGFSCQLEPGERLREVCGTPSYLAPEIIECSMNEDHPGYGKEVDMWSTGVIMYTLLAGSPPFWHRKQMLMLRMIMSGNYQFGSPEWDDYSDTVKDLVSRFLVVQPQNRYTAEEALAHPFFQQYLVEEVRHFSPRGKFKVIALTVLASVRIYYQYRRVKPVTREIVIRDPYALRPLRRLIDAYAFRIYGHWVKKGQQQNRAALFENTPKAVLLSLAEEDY
Description: as §1, §2, §3

[19] = target: T19, EPHB3 (Homo sapiens, UniProt P54753)
T19 construct: host or cells: E. coli host derived from BL21, T7 phage lysate
Description: as §1, §2, §3

[20] = target: T20, RET (M918T) (Homo sapiens, UniProt P07949, M918T)
T20 construct: host or cells: E. coli host derived from BL21, T7 phage lysate
Description: as §1, §2, §3

[21] = target: T21, EGFR (L747-E749del, A750P) (Homo sapiens, UniProt P00533, A750P/DEL747-749)
T21 construct: purchased Ambit Biosciences Corp (KinomeScan); host or cells: T7 phage in E. coli host derived from BL21
Description: as §1, §2, §3

T1 sequence (P10721 26-976): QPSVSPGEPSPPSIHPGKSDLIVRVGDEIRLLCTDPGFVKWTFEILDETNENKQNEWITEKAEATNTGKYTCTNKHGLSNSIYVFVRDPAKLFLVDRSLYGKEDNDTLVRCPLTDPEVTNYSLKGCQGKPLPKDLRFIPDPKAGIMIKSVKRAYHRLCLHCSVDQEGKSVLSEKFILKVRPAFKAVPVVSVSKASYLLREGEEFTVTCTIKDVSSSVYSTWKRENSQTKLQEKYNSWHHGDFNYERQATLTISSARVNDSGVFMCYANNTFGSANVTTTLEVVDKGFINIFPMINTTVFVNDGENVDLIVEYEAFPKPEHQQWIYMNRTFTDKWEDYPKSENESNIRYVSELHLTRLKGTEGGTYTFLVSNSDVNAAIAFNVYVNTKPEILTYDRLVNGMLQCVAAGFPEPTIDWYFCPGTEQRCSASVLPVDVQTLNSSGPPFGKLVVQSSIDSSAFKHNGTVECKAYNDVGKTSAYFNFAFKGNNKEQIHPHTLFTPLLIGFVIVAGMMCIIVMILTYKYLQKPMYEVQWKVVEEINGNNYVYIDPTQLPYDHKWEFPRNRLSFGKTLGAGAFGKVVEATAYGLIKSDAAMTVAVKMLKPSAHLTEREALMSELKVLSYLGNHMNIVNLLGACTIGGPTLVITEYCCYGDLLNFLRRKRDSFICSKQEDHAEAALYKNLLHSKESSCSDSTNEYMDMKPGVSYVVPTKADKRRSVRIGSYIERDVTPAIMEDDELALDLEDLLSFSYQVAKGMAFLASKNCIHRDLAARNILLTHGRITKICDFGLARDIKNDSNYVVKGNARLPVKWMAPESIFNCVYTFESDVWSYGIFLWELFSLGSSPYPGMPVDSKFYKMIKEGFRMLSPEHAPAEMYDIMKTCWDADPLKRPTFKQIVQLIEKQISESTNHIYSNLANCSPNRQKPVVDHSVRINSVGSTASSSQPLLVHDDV

## C#Cc1cccc(Nc2ncnc3cc(OC)c(OCCCN4CCOCC4)cc23)c1 [NRC-2694, N-(3-ethylnylphenyl)-7-methoxy-6-[3-(4-morpholinyl)propoxy]-4-quinazolinamine]
[1]
  % Ctrl @ 10000 nM: 26 % Ctrl
[2]
  % Ctrl @ 10000 nM: 51 % Ctrl
[3]
  % Ctrl @ 10000 nM: 83 % Ctrl
[4]
  % Ctrl @ 10000 nM: 100 % Ctrl
[5]
  % Ctrl @ 10000 nM: 0 % Ctrl
[6]
  % Ctrl @ 10000 nM: 4.4 % Ctrl
[7]
  % Ctrl @ 10000 nM: 4.8 % Ctrl
[8]
  % Ctrl @ 10000 nM: 23 % Ctrl
[9]
  % Ctrl @ 10000 nM: 94 % Ctrl
[10]
  % Ctrl @ 10000 nM: 93 % Ctrl
[11]
  % Ctrl @ 10000 nM: 38 % Ctrl
[12]
  % Ctrl @ 10000 nM: 37 % Ctrl
[13]
  % Ctrl @ 10000 nM: 89 % Ctrl
[14]
  % Ctrl @ 10000 nM: 63 % Ctrl
[15]
  % Ctrl @ 10000 nM: 78 % Ctrl
[16]
  % Ctrl @ 10000 nM: 42 % Ctrl
[17]
  % Ctrl @ 10000 nM: 17 % Ctrl
[18]
  % Ctrl @ 10000 nM: 50 % Ctrl
[19]
  % Ctrl @ 10000 nM: 75 % Ctrl
[20]
  % Ctrl @ 10000 nM: 37 % Ctrl
[21]
  % Ctrl @ 10000 nM: 0 % Ctrl
